# Laboratory results from publication PMC5051147, “Ester Hydrolysis Differentially Reduces Aconitine-Induced Anti-hypersensitivity and Acute Neurotoxicity: Involvement of Spinal Microglial Dynorphin Expression and Implications for Aconitum Processing” (Frontiers in Pharmacology, 2016).
# Key:
# [1] = tested on: spinal nerve–ligated neuropathic rats; experiment: Acute spinal neurotoxicity (flaccid paralysis and death) after intrathecal injection; type: in vivo, rat
# Procedure: An 18-cm polyethylene catheter (PE-10: 0.28-mm inner diameter and 0.61-mm outer diameter, Clay Adams, Parsippany, NJ, USA) with a volume of 13 μL was inserted into the lumbar level of the spinal cord as described elsewhere under inhalational isoflurane anesthesia (4% for induction and 1% for maintenance) run by an anesthesia meter (Ugo Basile Gas Anesthesia System, Comerio, Italy). Two days after recovery from anesthesia, the placement of the catheter in the spinal cord was verified by administration of 4% lidocaine (10 μL, followed by 15 μL of saline for flushing). Rats that had no motor impairment after placement of the intrathecal catheter were considered for the study, and rats that developed immediate bilateral paralysis of the hindlimbs after intrathecal administration of lidocaine were selected for the study. For intrathecal administration of the control and test articles, 10 μL of each drug was injected with a 50-μL microinjector (Shanghai Anting Micro-Injector Factory, Shanghai, China) and was flushed with 15 μL of normal saline solution.
# Survival and abnormal motor-blockade behaviors, including asthma, abdominal breathing, locomotion difficulty, and paralysis, were continuously monitored for 24 h after the treatment, with special attention given during the first 4 h. Paralysis was defined as an inability to negotiate a 60-degree inclined plane ([Durant and Yaksh, 1986]). Death was defined as respiratory arrest over a period of 5 min. The paralysis and mortality rates and their latencies were quantitatively recorded and tabulated.
# (§1) The percentage of maximal possible effect (% MPE) was calculated using the following formula: (postdrug threshold in ipsilateral hindlimb – baseline threshold in ipsilateral hindlimb)/(baseline threshold in contralateral hindlimb – baseline threshold in ipsilateral hindlimb) × 100 ([Bowersox et al., 1996]). A % MPE value near 100 indicates normal mechanical thresholds (i.e., near contralateral thresholds), and a value near 0 indicates allodynia. For the dose-response curve analysis, the parameters (i.e., minimum effect; Emax, median effective concentration or dose, or median toxic or lethal dose [EC50, ED50, TD50, or LD50], and Hill coefficient [n]) were calculated from the individual dose-response curves using the Prism program (version 5.01, GraphPad Software, San Diego, CA, USA). To determine the parameters of the dose-response curves, the values of response (Y) were fitted by non-linear least-squares curves to the relation Y = a + bx, where x = [D]^n/(ED50^n + [D]^n), [C]^n/(EC50^n + [C]^n), [D]^n/(TD50^n + [D]^n) or [D]^n/(LD50^n + [D]^n), to give each value of ED50, EC50, TD50, or LD50 and b (Emax) yielding a minimum residual sum of squares of deviations from the theoretical curve ([Wang and Pang, 1993]).
# [2] = tested on: prodynorphin gene expression in primary cultures of spinal microglia; experiment: Prodynorphin gene expression in cultured primary spinal microglia (real-time quantitative PCR); type: cell-based, rat
# Procedure: Glial cells were isolated from the 1-day-old neonatal rats. The isolated spinal cords were minced and then incubated with trypsin. Dissociated cells were suspended in 75-cm^2 tissue culture flasks (1 × 10^7 cells/flask) precoated with poly-L-lysine and maintained in a 5% CO2 incubator at 37°C. After culture for 10 days, the microglial cells were prepared as floating cell suspensions by shaking the flask at 260 rpm for 2 h. The aliquots were transferred to plates, and the unattached cells were removed by washing with serum-free Dulbecco’s modified Eagle’s medium.
# RNA extraction, reverse transcription, and real-time quantitative PCR were performed as previously described ([Chen et al., 2012]). The spinal lumbar enlargements of rats were collected and mechanically homogenized with an electronic microhomogenizer at 4,000 rpm for 10 s in TRIzol on ice. Total RNA from the spinal lumbar enlargements were isolated using TRIzol reagent (Invitrogen, Grand Island, NY, USA). A 1-μg sample of total RNA was reverse-transcribed with a ReverTra Ace qPCR RT-Kit (Toyobo, Japan). Real-time quantitative PCR was carried out with the Mastercycler ep realplex (Eppendorf, Germany) using the RealmasterMix (SYBR Green I) (Toyobo). The fold change was calculated with the 2^-ΔΔCt method after normalization to the gene of gapdh. […]
# The percentage of maximal possible effect (% MPE) was calculated using the following formula: (postdrug threshold in ipsilateral hindlimb – baseline threshold in ipsilateral hindlimb)/(baseline threshold in contralateral hindlimb – baseline threshold in ipsilateral hindlimb) × 100 ([Bowersox et al., 1996]). […] For the dose-response curve analysis, the parameters (i.e., minimum effect; Emax, median effective concentration or dose, or median toxic or lethal dose [EC50, ED50, TD50, or LD50], and Hill coefficient [n]) were calculated from the individual dose-response curves using the Prism program (version 5.01, GraphPad Software, San Diego, CA, USA). […]
# Primary cultures of microglial cells taken from the spinal cords of the neonatal rats were treated with a variety of concentrations of aconitine (1 × 10^-8, 3 × 10^-8, 1 × 10^-7, 3 × 10^-7, and 1 × 10^-6 M), benzolyaconine (3 × 10^-7, 1 × 10^-6, 3 × 10^-6, 1 × 10^-5, 3 × 10^-5, and 1 × 10^-4 M) and aconine (1 × 10^-4, 3 × 10^-4, 1 × 10^-3, 3 × 10^-3, and 1 × 10^-2 M) for 2 h. As the bulleyaconitine A-increased dynorphin A level measured by the enzyme-linked immunosorbent assay was in parallel with the prodynorphin gene expression in spinal microglia from neonatal and adult rats ([Li et al., 2016]), the expression of the cellular prodynorphin gene encoding dynorphin A was only measured in this study using real-time quantitative PCR. […]
# [3] = tested on: pain hypersensitivity in spinal nerve-ligated neuropathic rats; experiment: Anti-hypersensitivity, normalized (anti-allodynia and anti-hyperalgesia ED50 averaged); type: in vivo, rat; settings: intrathecal; average of allodynia and hyperalgesia ED50
# Procedure: as §1
# Table 1 summarizes the ED50 values in mole base for aconitine, benzolyaconine, and aconine to block pain hypersensitivity. Because anti-allodynia and anti-hyperalgesia were closely correlated, their ED50 values were averaged to obtain a normalized ED50 for anti-hypersensitivity. The ED50 ratios for aconitine and benzolyaconine to block mechanical allodynia and heat hyperalgesia were 1:92 and 1:110, with a normalized ED50 ratio of 1:102.
# [4] = intrathecal bolus, observed 24 h
compound,measurement,setting,value
"CCN1C[C@]2(COC)[C@H](O)C[C@H](OC)[C@@]34[C@@H]5C[C@@]6(O)[C@H](OC(=O)c7ccccc7)[C@@H]5[C@@](OC(C)=O)([C@@H]([C@H](OC)[C@H]23)[C@@H]14)[C@@H](O)[C@@H]6OC [Aconitine, aconitine]",Duration of toxic motor-blockade behavior,[1]; intrathecal,5 to 10 min
same,Latency of toxic motor-blockade behavior,[1]; intrathecal,2 to 3 min
same,Death latency,[1]; intrathecal 0.25 μg,13.6 min
same,Paralysis latency,[1]; intrathecal 0.25 μg,2.3 ± 0.7 min
same,Death latency,[1]; intrathecal 0.32 μg,12.4 ± 2.3 min
same,Paralysis latency,[1]; intrathecal 0.32 μg,2.5 ± 0.8 min
same,Death latency,[1]; intrathecal 0.4 μg,10.0 ± 3.3 min
same,Paralysis latency,[1]; intrathecal 0.4 μg,2.6 ± 1.2 min
same,LD50 (mortality),[1]; [4],0.6 nmol
same,TD50 (for flaccid paralysis),[1]; [4],0.4 nmol
same,Normalized TD50,"[1]; intrathecal, average of TD50 (paralysis) and LD50",0.5 nmol
same,Potency on microglial dynorphin A expression relative to bulleyaconitine A (more potent by),[2]; EC50 32 nM versus 45 nM,approximately 0.5 fold
same,EC50,"[2]; Rattus norvegicus, primary spinal microglia of neonatal rats, 2 h incubation, read-out: EC50, stimulation of prodynorphin gene (dynorphin A) expression",32 nM
same,Normalized ED50 for anti-hypersensitivity,[3],35 pmol
